Source: PubChem BioAssay (NCI)
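GI50 marks 50% less growth. Definition used: TGI = concentration required for complete inhibition of growth.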

Experiments:
Assay in all cases: inhibition of tumour cell growth, NCI panel, 384-well format
SR leukemia = system: SR leukemia
SF-268 CNS = system: SF-268 CNS
SW-620 colon = system: SW-620 colon
SK-MEL-28 melanoma = system: SK-MEL-28 melanoma
SK-OV-3 ovarian = system: SK-OV-3 ovarian
OVCAR-3 ovarian = system: OVCAR-3 ovarian
PC-3 prostate = system: PC-3 prostate
K-562 leukemia = system: K-562 leukemia
NCI-H460 NSCLC = system: NCI-H460 NSCLC
UACC-62 melanoma = system: UACC-62 melanoma
MDA-MB-231 breast = system: MDA-MB-231 breast
786-0 renal = system: 786-0 renal
NCI/ADR-RES ovarian = system: NCI/ADR-RES ovarian
RXF 393 renal = system: RXF 393 renal
HOP-62 NSCLC = system: HOP-62 NSCLC
DU-145 prostate = system: DU-145 prostate
CAKI-1 renal = system: CAKI-1 renal
CCRF-CEM leukemia = system: CCRF-CEM leukemia
NCI-H522 lung = system: NCI-H522 lung
OVCAR-4 ovarian = system: OVCAR-4 ovarian
SF-295 CNS = system: SF-295 CNS
NCI-H23 lung = system: NCI-H23 lung
SNB-75 CNS = system: SNB-75 CNS
UACC-257 melanoma = system: UACC-257 melanoma
M14 melanoma = system: M14 melanoma
IGROV1 ovarian = system: IGROV1 ovarian
OVCAR-8 ovarian = system: OVCAR-8 ovarian
EKVX NSCLC = system: EKVX NSCLC
UO-31 renal = system: UO-31 renal
RPMI-8226 leukemia = system: RPMI-8226 leukemia
A549 NSCLC = system: A549 NSCLC
SN12C renal = system: SN12C renal
T-47D breast = system: T-47D breast
KM12 colon = system: KM12 colon
HT29 colon = system: HT29 colon
SK-MEL-5 melanoma = system: SK-MEL-5 melanoma
MDA-MB-435 melanoma = system: MDA-MB-435 melanoma
COLO 205 colon = system: COLO 205 colon
ACHN renal = system: ACHN renal
MALME-3M melanoma = system: MALME-3M melanoma
SF-539 CNS = system: SF-539 CNS
HCT-15 colon = system: HCT-15 colon
HL-60(TB) leukemia = system: HL-60(TB) leukemia
TK-10 renal = system: TK-10 renal
NCI-H322M lung = system: NCI-H322M lung
MOLT-4 leukemia = system: MOLT-4 leukemia
A498 renal = system: A498 renal
HCC-2998 colon = system: HCC-2998 colon
MCF7 breast = system: MCF7 breast
SNB-19 CNS = system: SNB-19 CNS
HS 578T breast = system: HS 578T breast
HOP-92 NSCLC = system: HOP-92 NSCLC
OVCAR-5 ovarian = system: OVCAR-5 ovarian
BT-549 breast = system: BT-549 breast
NCI-H226 lung = system: NCI-H226 lung
LOX IMVI melanoma = system: LOX IMVI melanoma

CCN1Cc2c(ccc(F)c2C#N)O[C@@H](C)CNC(=O)c2c(N)nn3ccc1nc23
GI50 (SR leukemia): 310 nM
TGI (SR leukemia): 1020 nM
GI50 (SF-268 CNS): 1760 nM
TGI (SF-268 CNS): 11900 nM
GI50 (SW-620 colon): 3820 nM
TGI (SW-620 colon): 16400 nM
GI50 (SK-MEL-28 melanoma): 620 nM
TGI (SK-MEL-28 melanoma): 3760 nM
GI50 (SK-OV-3 ovarian): 282 nM
TGI (SK-OV-3 ovarian): 2360 nM
GI50 (OVCAR-3 ovarian): 1420 nM
TGI (OVCAR-3 ovarian): 11200 nM
GI50 (PC-3 prostate): 1380 nM
TGI (PC-3 prostate): 17600 nM
GI50 (K-562 leukemia): 66.4 nM
TGI (K-562 leukemia): 222 nM
GI50 (NCI-H460 NSCLC): 426 nM
TGI (NCI-H460 NSCLC): 11400 nM
GI50 (UACC-62 melanoma): 454 nM
TGI (UACC-62 melanoma): 2520 nM
GI50 (MDA-MB-231 breast): 438 nM
TGI (MDA-MB-231 breast): 1970 nM
GI50 ([…]-0 renal): 1340 nM
TGI (786-0 renal): 12900 nM
GI50 (NCI/ADR-RES ovarian): 3890 nM
TGI (NCI/ADR-RES ovarian): 15800 nM
GI50 (RXF 393 renal): 1320 nM
TGI (RXF 393 renal): 7180 nM
GI50 (HOP-62 NSCLC): 1210 nM
TGI (HOP-62 NSCLC): 11200 nM
GI50 (DU-145 prostate): 465 nM
TGI (DU-145 prostate): 2880 nM
GI50 (CAKI-1 renal): 523 nM
TGI (CAKI-1 renal): 1840 nM
GI50 (CCRF-CEM leukemia): 566 nM
TGI (CCRF-CEM leukemia): 10800 nM
GI50 (NCI-H522 lung): 528 nM
TGI (NCI-H522 lung): 14300 nM
GI50 (OVCAR-4 ovarian): 2400 nM
TGI (OVCAR-4 ovarian): 17300 nM
GI50 (SF-295 CNS): 153 nM
TGI (SF-295 CNS): 3020 nM
GI50 (NCI-H23 lung): 264 nM
TGI (NCI-H23 lung): 3480 nM
GI50 (SNB-75 CNS): 892 nM
TGI (SNB-75 CNS): 5370 nM
GI50 (UACC-257 melanoma): 1020 nM
TGI (UACC-257 melanoma): 4890 nM
GI50 (M14 melanoma): 364 nM
TGI (M14 melanoma): 1850 nM
GI50 (IGROV1 ovarian): 566 nM
TGI (IGROV1 ovarian): 3350 nM
GI50 (OVCAR-8 ovarian): 2740 nM
TGI (OVCAR-8 ovarian): 13800 nM
GI50 (EKVX NSCLC): 563 nM
TGI (EKVX NSCLC): 10300 nM
GI50 (UO-31 renal): 2650 nM
TGI (UO-31 renal): 16300 nM
GI50 (RPMI-8226 leukemia): 205 nM
TGI (RPMI-8226 leukemia): 598 nM
GI50 (A549 NSCLC): 585 nM
TGI (A549 NSCLC): 12100 nM
GI50 (SN12C renal): 613 nM
TGI (SN12C renal): 4690 nM
GI50 (T-47D breast): 946 nM
TGI (T-47D breast): 12300 nM
TGI (KM12 colon): 14700 nM
GI50 (HT29 colon): 694 nM
TGI (HT29 colon): 12400 nM
GI50 (SK-MEL-5 melanoma): 395 nM
TGI (SK-MEL-5 melanoma): 5310 nM
GI50 (MDA-MB-435 melanoma): 565 nM
TGI (MDA-MB-435 melanoma): 10500 nM
GI50 (COLO 205 colon): 271 nM
TGI (COLO 205 colon): 1010 nM
GI50 (ACHN renal): 385 nM
TGI (ACHN renal): 2060 nM
GI50 (MALME-3M melanoma): 436 nM
TGI (MALME-3M melanoma): 2410 nM
GI50 (SF-539 CNS): 3070 nM
TGI (SF-539 CNS): 13800 nM
GI50 (HCT-15 colon): 757 nM
TGI (HCT-15 colon): 10300 nM
GI50 (HL-60(TB) leukemia): 1140 nM
TGI (HL-60(TB) leukemia): 3010 nM
GI50 (TK-10 renal): 868 nM
TGI (TK-10 renal): 6620 nM
GI50 (NCI-H322M lung): 2200 nM
TGI (NCI-H322M lung): 18800 nM
GI50 (MOLT-4 leukemia): 198 nM
TGI (MOLT-4 leukemia): 478 nM
GI50 (A498 renal): 379 nM
TGI (A498 renal): 7560 nM
GI50 (HCC-2998 colon): 4120 nM
TGI (HCC-2998 colon): 20900 nM
GI50 (MCF7 breast): 3160 nM
TGI (MCF7 breast): 19400 nM
GI50 (SNB-19 CNS): 2840 nM
TGI (SNB-19 CNS): 12700 nM
GI50 (HS 578T breast): 381 nM
TGI (HS 578T breast): 1950 nM
GI50 (HOP-92 NSCLC): 362 nM
TGI (HOP-92 NSCLC): 1850 nM
GI50 (OVCAR-5 ovarian): 735 nM
TGI (OVCAR-5 ovarian): 9020 nM
GI50 (BT-549 breast): 2680 nM
TGI (BT-549 breast): 15300 nM
GI50 (NCI-H226 lung): 1280 nM
TGI (NCI-H226 lung): 4700 nM
GI50 (LOX IMVI melanoma): 529 nM
TGI (LOX IMVI melanoma): 1980 nM
